Assay [1] relates to A549. Description: Cytotoxicity against human A549 cells. The format is functional, cell-based. To be noted: Homo sapiens, A549; read-out: ED50 (the source's name).
The test system of assay [2] is P388. Description: Cytotoxicity against mouse P388 cells. The conditions noted are these: Mus musculus, P388; read-out: ED50 (the source's name). The format is functional, cell-based.
For assay [3], the system named is KB. Nature of the assay: Cytotoxicity against human KB cells. The conditions noted are these: Homo sapiens, KB; read-out: ED50 (the source's name). It is filed as functional, cell-based.
A short description of assay [4]: Cytotoxicity against human […] cells. It is filed as functional. The conditions noted are these: read-out: ED50 (the source's name).
A short description of assay [5]: Cytotoxicity against human LOX cells by soft agar assay. It is filed as functional.
Assay [6] in a line: Cytotoxicity against human IGRO cells by soft agar assay. The format is functional.
Assay [7] deals with 786-0. Nature of the assay: Cytotoxicity against human renal 7860 cells by soft agar assay. The format is functional.
Assay [8] has as its system MOLT-4. Nature of the assay: Cytotoxicity against human MOLT4 cells by soft agar assay. It is filed as functional.
For assay [9], the system named is KM12. Description: Cytotoxicity against human KM12 cells by soft agar assay. It is filed as functional.
In assay [10] the test system is A549. Nature of the assay: Cytotoxicity against human A549 cells by soft agar assay. It is filed as functional.
Assay [11] deals with BT-549. Description: Cytotoxicity against human BT549 cells by soft agar assay. The format is functional.
The test system of assay [12] is HeLa. Description: Cytotoxicity against human HeLa cells. The format is functional, cell-based.
The subject of assay [13] is L1210. Nature of the assay: Cytotoxicity against mouse L1210 cells. It is filed as functional, cell-based. To be noted: Mus musculus, L1210.
The test system of assay [14] is HL-60. Description: Cytotoxicity against human HL60 cells by soft agar assay. The format is functional.

EC50, GI50 and IC50 data for 13 compounds are collected here from ChEMBL document CHEMBL1149799, “Bioactive peroxides as potential therapeutic agents” (Eur J Med Chem, 2008).

Each structure is given as a SMILES string. Values after ≈ are worked out from the molar mass of the structure shown. A value given as a limit tells only on which side of the number the result lay.

In general, GI50 refers to the concentration that inhibits growth by half. A word on the IC50: it is the point on the concentration scale where inhibition reaches its midpoint. A low value points to greater potency.

For `CC(C)/C(=C\COO)CC[C@@H](C)[C@H]1CC[C@@H]2[C@@H]1CC[C@H]1[C@H]2CC=C2C[C@@H](O)CC[C@@]21C`, the EC50 in assay [1] amounted to 2.2 µg/mL (≈ 5.11 µM); in assay [2] it was 0.5 µg/mL (≈ 1.16 µM); in assay [3], 2.2 µg/mL (≈ 5.11 µM); in [4] it was 5 µg/mL (≈ 11.6 µM).
For `C=C1CCCC(C)(C)C1CC[C@@]1(C)CC[C@H]([C@@H](C)C(=O)O)OO1` (stereo partly drawn) [NAPAPUIN B], the values for the GI50 in assay [5] and in assay [6] were 250 nM and 630 nM, respectively.
On to `C=C1CCCC(C)(C)C1CC[C@]1(C)CC[C@@H]([C@@H](C)C(=O)O)OO1` (stereo partly drawn) [EPINUAPAPUIN B], for which the concentration for 50% growth inhibition (GI50) is more than 5000 nM in assay [7]; more than 5000 nM in assay [8]; more than 5000 nM in assay [9]; more than 5000 nM in assay [10]; more than 5000 nM in assay [11]; 1730 nM in assay [6].
Regarding `C=C[C@@H](O)C#CC#C/C=C/C(CCCCCCC)OO` (stereo partly drawn) [GINSENOYNE K], the IC50 in [12] came to 10.5 µg/mL (≈ 38 µM); in assay [13], 1.8 µg/mL (≈ 6.51 µM).
As to `C=C1CCCC(C)(C)C1(O)CC/C(C)=C/CC[C@]1(C)CC[C@H]([C@@H](C)C(=O)OC)OO1` (stereo partly drawn) [EPIMUQUBILIN B], the GI50 in [7], in assay [8], in assay [9], in assay [14], in assay [10] and in [11] was more than 5000 nM in each case. The GI50 in assay [6] is more than 5000 nM.
Take `C=C1CCC[C@@H]2[C@@H](CC[C@@]3(C)CC[C@H]([C@H](C)C(=O)O)OO3)[C@H](C)CC[C@@]12C` [SIGMOSCEPTRELLIN B]: the GI50 in assay [7] stood at 500 nM; in assay [5], 160 nM; in assay [8], 840 nM; in [9], 950 nM; in assay [14], 140 nM; in assay [10], 940 nM. In addition, the GI50 in assay [11] was 960 nM; in [6], 100 nM.
On to `C=C1CCCC(C)(C)C1(O)CC/C(C)=C/CC[C@]1(C)CC[C@@H]([C@@H](C)C(=O)OC)OO1` (stereo partly drawn) [MUQUBILIN B], for which the GI50 in assay [7], in [5], in assay [8], in assay [9], in assay [14] and in assay [10] was more than 5000 nM each time. In [6], this compound returned a concentration for 50% growth inhibition (GI50) of 2420 nM.
In the case of `CC1=C(CC/C(C)=C/CC[C@@]2(C)CC[C@@H]([C@H](C)C(=O)O)OO2)C(C)(C)CCC1` [EPIMUQUBILIN A], the concentration for 50% growth inhibition (GI50) in [7], in [5], in [8], in assay [9], in assay [14] and in [10] was more than 5000 nM throughout. In addition, the GI50 in assay [11] and in assay [6] was more than 5000 nM each time.
Take `C=C(C)[C@@H](CC)CC[C@@H](C)[C@H]1CC[C@H]2[C@@H]3C=C[C@@]4(OO)C[C@@H](O)CC[C@]4(C)[C@H]3CC[C@@H]21`: the EC50 in [1] is 1.1 µg/mL (≈ 2.55 µM); in assay [2], 0.5 µg/mL (≈ 1.16 µM); in assay [3], 1 µg/mL (≈ 2.32 µM); in assay [4] it was 0.9 µg/mL (≈ 2.09 µM).
In the case of `C=C1CCC[C@H]2[C@](C)(CC[C@]3(C)CC[C@H]([C@@H](C)C(=O)O)OO3)[C@@H](C)CC[C@]12C` [SIGMOSCEPTRELLIN A], the GI50 came out at 960 nM in [11] and 120 nM in assay [6].
As for `C=C1CCCC(C)(C)C1CC[C@]1(C)CC[C@H]([C@@H](C)C(=O)OC)OO1` (stereo partly drawn) [NUAPAPUIN B], the 50% growth inhibitory concentration (GI50) in assay [5] was 470 nM; in assay [8] it was more than 5000 nM; in assay [6], 500 nM.
In assay [12], `C[C@H](C(=O)O)[C@@H]1CC[C@@](C)(CC[C@@]2(C)C3=CCCC(C)(C)[C@@H]3CC[C@H]2C)OO1` [MYCAPEROXIDE H] registered a concentration for half-maximal inhibition (IC50) of 0.8 µg/mL (≈ 2.04 µM).
As to `C=CC(C[C@@H](C)[C@H]1CC[C@H]2[C@@H]3CC=C4C[C@@H](O)CC[C@]4(C)[C@H]3CC[C@]12C)(OO)C(C)C` (stereo partly drawn), the EC50 was 7.1 µg/mL (≈ 16.5 µM) in assay [1], 0.3 µg/mL (≈ 0.697 µM) in assay [2], 1.8 µg/mL (≈ 4.18 µM) in assay [3] and 5.9 µg/mL (≈ 13.7 µM) in assay [4].
